Reference: patent US8729089B2 (Gilead Sciences, Inc., priority 2006, dated 2014)

Legend:
[1] = CC50 assay (CellTiter-Glo) in Huh-7 HCV replicon cells; format: cell-based, human; details: human, 3 days incubation, CellTiter-Glo readout
Procedure: (§1) The anti-HCV activity of the pyrido[3,2-d]pyrimidine derivatives of this invention was tested in a human hepatoma Huh-7 cell line harboring a HCV replicon. The assay comprised the following steps:
(§2) Step 1: Compound Preparation and Serial Dilution
(§3) • 1. for water soluble pyrido[3,2-d]pyrimidine derivatives, a volume of 500 μL of solution in cell media (DMEM, 10% FBS, P/S, L-Glutamine) was prepared with a concentration being twice the concentration of the starting final serial dilution concentration. A volume of 150 μL of the solution was added to the pre-specified wells in column 1 of a 96-well cell culture plate (PerkinElmer, white plate, cat. #6005181, for EC50 assay; black plate, cat. #6005182 for CC50 assay). The rest of the plate, columns 2-12, was filled with 100 μL of cell media. The plate was then placed on a Precision 2000 Workstation to start the serial dilution. Compounds were diluted three times each step from column 1 to column 10. Column 11 was used as a blank control (no compound added). • 2. for pyrido[3,2-d]pyrimidine derivatives requiring DMSO to dissolve, serial dilution is performed in 50% DMSO in a 384-well plate. A solution containing a compound at 100-fold concentration of the starting final serial dilution concentration was prepared in 50% DMSO and added to the pre-specified wells in column 1 of a polypropylene 384-well plate. The plate was then placed on a Precision 2000 Workstation to start the serial dilution. After the serial dilution, a volume of 2 μL of the solution was transferred from the 384-well plate to a 96-well cell culture plate containing 100 μL of cell media on a Biomek FX Workstation. The DMSO concentration in the final assay condition was 0.5% after cells are added to the plate and the total volume in each well is brought to 200 μL.
(§4) Step 2: to each well of the serial dilution plate prepared above, 100 μL of cell media containing 6000 suspended Huh-7 HCV replicon cells was added with a Multidrop workstation. The plates were incubated for 3 days at 37° C. with 5% CO2.
(§5) • a) for the EC50 assay, the media in a 96-well cell culture plate was aspirated with a Biotek EL405 plate-washer. A volume of 200 μL of a solution containing a 1:1 mixture of cell-lysis buffer (Promega, Luciferase Cell Culture Lysis 5× Reagent, cat. #E1531) and luciferase substrate solution (Promega, Luciferase Assay, cat.#E4550) was added to each well of the plate with Multidrop. The plate was incubated for 30 minutes at room temperature before the luminescence signal was measured with a TopCount plate-reader. • b) for the CC50 assay, a volume of 100 μL of pre-mixed CellTiter-Glo (Promega, cat.#G7572) solution is added directly to the cell culture in each well of the plate and the luminescence signal is measured with a TopCount plate-reader after 10 minutes of incubation at room temperature.

[2] = test system: HCV replicon in human hepatoma Huh-7 cell line; assay: Anti-HCV replicon assay (EC50, luciferase); format: cell-based; details: Hepatitis C virus, Huh-7, 72 h
Procedure: as §1, §2, §3, §4, §5

| SMILES | CC50 at 3 days [1] | EC50 [2] |
| --- | --- | --- |
| CN(CCS(C)(=O)=O)c1nc(NCc2ccc(F)cc2)nc2ccc(-c3ccc(F)cc3)nc12 [Example 28, N2-(4-Fluoro-benzyl)-6-(4-fluoro-phenyl)-N4-(2-methanesulfonyl-ethyl)-N4-methyl-pyrido[3,2-d]pyrimidine-2,4-diamine] | > 25 µM | < 0.1 µM |
| NS(=O)(=O)c1ccc(CNc2nc(NC3CC3)c3nc(-c4ccc(F)c(NS(=O)(=O)C5CC5)c4)ccc3n2)cc1 [Example 184, 4-{[6-(3-Cyclopropanesulfonylamino-4-fluoro-phenyl)-4-cyclopropylamino-pyrido[3,2-d]pyrimidin-2-ylamino]-methyl}-benzenesulfonamide] | < 5 µM | < 0.1 µM |
| CCOc1nc(NCc2ccc(F)cc2)nc2ccc(-c3cnc(N)s3)nc12 [Example 100, [6-(2-Amino-thiazol-5-yl)-4-ethoxy-pyrido[3,2-d]pyrimidin-2-yl]-(4-fluoro-benzyl)-amine] | < 5 µM | < 0.1 µM |
| Fc1ccc(-c2ccc3nc(NCCn4cncn4)nc(NCC(F)(F)F)c3n2)cc1 [Example 254, 6-(4-Fluoro-phenyl)-N2-(2-[1,2,4]triazol-1-yl-ethyl)-N4-(2,2,2-trifluoro-ethyl)-pyrido[3,2-d]pyrimidine-2,4-diamine] | > 25 µM | < 0.1 µM |
| CCOc1nc(NCCc2ccccc2)nc2ccc(-c3ccc(F)cc3)nc12 [Example 118, [4-Ethoxy-6-(4-fluoro-phenyl)-pyrido[3,2-d]pyrimidin-2-yl]-phenethyl-amine] | 5 to 25 µM | < 0.1 µM |
| NC(=O)CCNc1nc(NCC(F)(F)F)c2nc(-c3ccc(F)cc3)ccc2n1 [Example 260, 3-[6-(4-Fluoro-phenyl)-4-(2,2,2-trifluoro-ethylamino)-pyrido[3,2-d]pyrimidin-2-ylamino]-propionamide] | 5 to 25 µM | < 0.1 µM |
| CCOc1nc(NCc2ccc(F)cc2)nc2ccc(-c3ccc(F)nc3)nc12 [Example 87, [4-Ethoxy-6-(6-fluoro-pyridin-3-yl)-pyrido[3,2-d]pyrimidin-2-yl]-(4-fluoro-benzyl)-amine] | < 5 µM | < 0.1 µM |
| Fc1ccc(-c2ccc3nc(NCc4cncs4)nc(NCC(F)(F)F)c3n2)cc1 [Example 248, 6-(4-Fluoro-phenyl)-N2-thiazol-5-ylmethyl-N4-(2,2,2-trifluoro-ethyl)-pyrido[3,2-d]pyrimidine-2,4-diamine] | 5 to 25 µM | < 0.1 µM |
| NS(=O)(=O)c1ccc(CNc2nc(C3CC3)c3nc(-c4ccc(F)cc4)ccc3n2)cc1 [Example 294, 4-{[4-Cyclopropyl-6-(4-fluoro-phenyl)-pyrido[3,2-d]pyrimidin-2-ylamino]-methyl}-benzenesulfonamide] | < 5 µM | < 0.1 µM |
| CCOc1nc(NCc2ccc(S(N)(=O)=O)cc2)nc2ccc(-c3ccc(F)c(S(N)(=O)=O)c3)nc12 [Example 145, 5-[4-Ethoxy-2-(4-sulfamoyl-benzylamino)-pyrido[3,2-d]pyrimidin-6-yl]-2-fluoro-benzenesulfonamide] | 5 to 25 µM | < 0.1 µM |
| CS(=O)(=O)N(CCO)c1cccc(-c2ccc3nc(NCc4ccc(F)cc4)nc(NCC(F)(F)F)c3n2)c1 [Example 276, N-{3-[2-(4-Fluoro-benzylamino)-4-(2,2,2-trifluoro-ethylamino)-pyrido[3,2-d]pyrimidin-6-yl]-phenyl}-N-(2-hydroxy-ethyl)-methanesulfonamide] | 5 to 25 µM | < 0.1 µM |
| CCOc1nc(NCc2ccc(F)cc2)nc2ccc(-c3ccc(NC(N)=O)cc3)nc12 [Example 75, {4-[4-Ethoxy-2-(4-fluoro-benzylamino)-pyrido[3,2-d]pyrimidin-6-yl]-phenyl}-urea] | > 25 µM | < 0.1 µM |
| CCOc1nc(NCCOC)nc2ccc(-c3ccc(F)cc3)nc12 [Example 264, [4-Ethoxy-6-(4-fluoro-phenyl)-pyrido[3,2-d]pyrimidin-2-yl]-(2-methoxy-ethyl)-amine] | > 25 µM | < 0.1 µM |
| CCOc1nc(NCc2ccc(F)cc2)nc2ccc(-c3ccc(N4CCC(O)C4=O)cc3)nc12 (stereo not shown) [Example 86, 1-{4-[4-Ethoxy-2-(4-fluoro-benzylamino)-pyrido[3,2-d]pyrimidin-6-yl]-phenyl}-3-hydroxy-pyrrolidin-2-one] | < 5 µM | < 0.1 µM |
| CCOc1nc(NCc2ccc(S(N)(=O)=O)cc2)nc2ccc(-c3cccc(S(N)(=O)=O)c3)nc12 [Example 133, 4-{[4-Ethoxy-6-(3-(aminosulfonyl)-phenyl)-pyrido[3,2-d]pyrimidin-2-ylamino]-methyl}-benzenesulfonamide] | 5 to 25 µM | < 0.1 µM |
| CCOc1nc(NCc2cc(F)c(F)c(F)c2)nc2ccc(-c3ccc(F)cc3)nc12 [Example 46, [4-Ethoxy-6-(4-fluoro-phenyl)-pyrido[3,2-d]pyrimidin-2-yl]-(3,4,5-trifluoro-benzyl)-amine] | 5 to 25 µM | < 0.1 µM |
| CCOc1nc(NCc2ccc(F)cc2)nc2ccc(-c3ccc(C(=O)NC(C)(C)CO)cc3)nc12 [Example 94, 4-[4-Ethoxy-2-(4-fluoro-benzylamino)-pyrido[3,2-d]pyrimidin-6-yl]-N-(2-hydroxy-1,1-dimethyl-ethyl)-benzamide] | 5 to 25 µM | < 0.1 µM |
| CC(C)Nc1nc(NCC(F)F)nc2ccc(-c3ccc(F)cc3)nc12 [Example 57, N2-(2,2-Difluoro-ethyl)-6-(4-fluoro-phenyl)-N4-isopropyl-pyrido[3,2-d]pyrimidine-2,4-diamine] | < 5 µM | 0.25 to 2 µM |
| CCNc1nc(NCc2ccc(S(N)(=O)=O)cc2)nc2ccc(-c3ccc(F)cc3)nc12 [Example 297, 4-{[4-Ethylamino-6-(4-fluoro-phenyl)-pyrido[3,2-d]pyrimidin-2-ylamino]-methyl}-benzenesulfonamide] | < 5 µM | < 0.1 µM |
| CC(C)Nc1nc(NCc2cccnc2)nc2ccc(-c3ccc(F)cc3)nc12 [Example 54, 6-(4-Fluoro-phenyl)-N4-isopropyl-N2-pyridin-3-ylmethyl-pyrido[3,2-d]pyrimidine-2,4-diamine] | 5 to 25 µM | 0.1 to 0.25 µM |
| CC(C)(N)C(=O)Nc1ccc(-c2ccc3nc(NCc4ccc(S(N)(=O)=O)cc4)nc(NCCS(C)(=O)=O)c3n2)cc1 [Example 154, 4-{[4-(2-Methanesulfonylethyl)-amino-6-(4-((2-amino-2-propyl)-carboxamido)-phenyl)-pyrido[3,2-d]pyrimidin-2-ylamino]-methyl}-benzenesulfonamide] | > 25 µM | 0.1 to 0.25 µM |
| CCOc1nc(NCc2ccc(F)cc2)nc2ccc(-c3ccc(NC(=O)NCCN4CCCC4)cc3)nc12 [Example 93, 1-{4-[4-Ethoxy-2-(4-fluoro-benzylamino)-pyrido[3,2-d]pyrimidin-6-yl]-phenyl}-3-(2-pyrrolidin-1-yl-ethyl)-urea] | < 5 µM | < 0.1 µM |
| CCOc1nc(NCc2ccc(F)cc2)nc2ccc(-c3ccc(NC(=O)N4CCOCC4)cc3)nc12 [Example 72, Morpholine-4-carboxylic acid {4-[4-ethoxy-2-(4-fluoro-benzylamino)-pyrido[3,2-d]pyrimidin-6-yl]-phenyl}-amide] | 5 to 25 µM | < 0.1 µM |
| NS(=O)(=O)c1ccc(CNc2nc(NCC(F)(F)F)c3nc(-c4ccnc(C(F)(F)F)c4)ccc3n2)cc1 [Example 168, 4-{[4-(2,2,2-Trifluoro-ethylamino)-6-(2-trifluoromethyl-pyridin-4-yl)-pyrido[3,2-d]pyrimidin-2-ylamino]-methyl}-benzenesulfonamide] | > 25 µM | < 0.1 µM |
| CCOc1nc(NCc2ccc(S(N)(=O)=O)cc2)nc2ccc(-c3ccc(NC(=O)C4(O)CC4)cc3)nc12 [Example 136, 4-{[4-Ethoxy-6-(4-((1-hydroxy-1-cyclopropyl)-carboxamido)-phenyl)-pyrido[3,2-d]pyrimidin-2-ylamino]-methyl}-benzenesulfonamide] | 5 to 25 µM | < 0.1 µM |
| CCN(CC)c1nc(NCc2ccc(S(N)(=O)=O)cc2)nc2ccc(-c3ccc(F)cc3)nc12 [Example 59, 4-{[4-Diethylamino-6-(4-fluoro-phenyl)-pyrido[3,2-d]pyrimidin-2-ylamino]-methyl}-benzenesulfonamide] | 5 to 25 µM | < 0.1 µM |
